Activity calls are given as the source filed them. The calls are words filed in the database; no cut-off is given here.
Experiments:
[1] = molecular target: T1, TNF receptor-associated factor 6 (Homo sapiens, UniProt Q9Y4K3); test: Inhibition of human TRAF6 interaction with biotinylated RANK peptide by NMR interaction analysis
T1 sequence (Q9Y4K3 whole entry): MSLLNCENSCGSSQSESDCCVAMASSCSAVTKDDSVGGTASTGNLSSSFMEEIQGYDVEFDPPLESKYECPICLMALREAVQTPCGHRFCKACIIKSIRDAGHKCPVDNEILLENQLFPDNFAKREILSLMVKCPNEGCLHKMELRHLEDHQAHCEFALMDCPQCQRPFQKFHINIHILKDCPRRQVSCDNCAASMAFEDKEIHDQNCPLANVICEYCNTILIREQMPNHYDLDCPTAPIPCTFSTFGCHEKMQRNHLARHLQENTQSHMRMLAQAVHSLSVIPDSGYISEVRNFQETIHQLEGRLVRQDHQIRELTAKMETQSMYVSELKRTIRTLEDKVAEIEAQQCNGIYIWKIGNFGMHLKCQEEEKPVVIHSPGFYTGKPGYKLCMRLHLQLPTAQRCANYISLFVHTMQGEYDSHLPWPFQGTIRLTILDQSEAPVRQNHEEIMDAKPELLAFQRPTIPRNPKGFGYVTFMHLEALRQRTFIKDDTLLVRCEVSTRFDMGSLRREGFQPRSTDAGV

[2] = Cytotoxicity against BALB/c mouse primary bone marrow derived monocytes after 7 days by osteoclast differentiation/AlamarBlue assay; format: cell-based; conditions: monocyte, 168 h
[3] = molecular target: T2, TNF receptor-associated factor 6 (Homo sapiens) (UniProt Q9Y4K3); test: Induction of human TRAF6 aggregation by NMR titration
T2 sequence (whole entry): T1 sequence (Q9Y4K3 whole entry)

[4] = system: Monocyte; test: Inhibition of BALB/c mouse primary bone marrow derived monocytes differentiation after 7 days by osteoclast differentiation assay; format: functional, cell-based
[5] = molecular target: T2, TNF receptor-associated factor 6 (Homo sapiens); test: Binding affinity to human TRAF6 using immobilized biotinylated RANK peptide from by SPR analysis
[6] = molecular target: T2, TNF receptor-associated factor 6 (Homo sapiens); conditions: 200 uM
Description: Competitive inhibition of human TRAF6 interaction with biotinylated RANK peptide at 200 uM by NMR interaction analysis

[7] = system: Monocyte; test: Inhibition of BALB/c mouse primary bone marrow derived monocytes differentiation after 7 days at 150 uM by osteoclast differentiation assay; format: functional; conditions: 168 h

Row | SMILES | Kd [1] [mM] | Activity [2] | Activity [3] | inhibition [4] | inhibition [5] | inhibition [6] | inhibition at 150 µM [7] [%]
1 | CS(=O)(=O)NC(=O)c1ccc(NC(=O)Cn2c(=O)sc3ccc(Cl)cc32)cc1 | 0.99 |  |  |  |  |  | 
2 | O=C(Cn1c(=O)sc2ccc(Cl)cc21)Nc1ccc(C(=O)O)cc1 | 1.7 |  |  |  |  |  | 
3 | O=C(Cn1c(=O)sc2ccccc21)Nc1ccc(C(=O)O)cc1 | 1.9 | Non-toxic | inactive | Active | Active |  | 
4 | COc1ccc(S(=O)(=O)NC(=O)c2ccc(NC(=O)Cn3c(=O)sc4ccc(Cl)cc43)cc2)cc1Cl | 0.035 |  | inactive |  |  | Active | 40

— ChEMBL document CHEMBL3588856, “Structure-Based Development of a Protein-Protein Interaction Inhibitor Targeting Tumor Necrosis Factor Receptor-Associated Factor 6” (J Med Chem, 2015)
